Holding throughout (format): cell-based
In one assay the target is T1, human 5-HT2B receptor (Homo sapiens, UniProt P41595).
T1 construct: expressed in transfected cells; host or cells: HEK293 (ATCC CRL-1573), retroviral infection with pBabepuro-FLAG-h5-HT2BR, polyclonal line
Briefly: Functional activity by Ca++-flux (intracellular calcium mobilization), 5-HT2B. The following applies: for EC50: read-out: 5-HT2B human EC50. A general note: A change in cytosolic calcium serves as a functional read-out for many receptors and channels.

The target of a further assay is T2, human 5-HT2A receptor (Homo sapiens, UniProt P28223).
T2 construct: expressed in transfected cells; host or cells: HEK-293
T2 sequence (P28223 whole entry): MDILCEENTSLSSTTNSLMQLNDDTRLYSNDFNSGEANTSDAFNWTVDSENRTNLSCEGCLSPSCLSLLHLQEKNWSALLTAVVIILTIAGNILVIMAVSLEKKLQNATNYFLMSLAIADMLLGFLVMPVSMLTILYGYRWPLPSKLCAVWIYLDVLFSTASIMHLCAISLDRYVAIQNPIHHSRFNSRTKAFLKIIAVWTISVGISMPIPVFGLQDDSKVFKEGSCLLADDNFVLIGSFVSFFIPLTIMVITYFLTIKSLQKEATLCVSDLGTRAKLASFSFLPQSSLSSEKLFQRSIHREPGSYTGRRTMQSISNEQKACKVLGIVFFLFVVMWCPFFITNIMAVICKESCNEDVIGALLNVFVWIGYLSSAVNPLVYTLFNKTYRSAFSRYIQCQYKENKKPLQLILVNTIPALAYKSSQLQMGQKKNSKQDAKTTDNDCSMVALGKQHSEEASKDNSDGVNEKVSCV
The assay can be described thus: Functional activity by Ca++-flux (intracellular calcium mobilization), 5-HT2A. Here is the method:
The functional activity of the compounds for the human 5-HT2A, human 5-HT2B, and human 5-HT2C receptors is determined by measurement of Ca++-flux as detailed in the Examples, in transiently transfected HEK-293 cells and the results are summarized in Table I. Structures of compounds listed in Table I are given in Scheme 15.
The functional activity of compounds for the human 5-HT2A, human 5-HT2B, and human 5-HT2C receptors as agonists, partial agonists and antagonists is determined by measurement of Ca++-flux. The results are summarized in Table 1 where EC50 for different receptors are given (nM) and the ratio of activities 2A/2C and 2B/2C are also given. As noted above, other methods for assessing agonist/antagonist function of compounds for 5-HT2 family receptors are known in the art.
(§1) For these studies stably expressing lines of h5-HT2A, h5-HT2B, and h5-HT2C receptors are prepared in HEK-293 cells. For the h5-HT2A and h5-HT2C-INI receptors, stably expressing HEK-293 cell lines were constructed as previously described using a pIRES-NEO vector system (See: Rauser et al, J Pharmacol Exp Ther 299: 83-89, 2001).
(§2) Stable cell lines were plated with ˜40,000 cells/well into uncoated (3T3 cells) or poly-L-lysine coated (HEK293 cells) 96-well plates in DMEM supplemented with 5% dialyzed FBS. 16-24 hrs post-plating, the medium was aspirated and replaced with 30 μl/well of Calcium Assay Kit Component A Dye (Molecular Devices; Sunnyvale, Calif.) dissolved in 30 ml/bottle of assay buffer (2.5 mM probenecid, 20 mM Hepes, and 1× Hanks' Balanced Salt Solution (Invitrogen; Carlsbad, Calif.) (138 mM NaCl, 5.3 mM KCl, 1.3 mM CaCl2, 0.49 mM MgCl2, 0.41 mM MgSO4, 0.44 mM KH2PO4, 0.34 mM Na2HPO4) pH 7.4. Plates were incubated in the dye for 1 hr at 37° C. Dilutions were made in assay buffer as 2× stocks and added to 96-well drug plates. Fluorometric imaging was performed using a FlexStation II plate reader (Molecular Devices) reading the plate at 1.5 second intervals for 1 min. After establishing a fluorescent baseline (excitation at 485 nm and emission at 525 nm, using a […] cutoff), the FlexStation II automatically transferred 30 μl of 2× drug stocks from the drug plate to the cell plate at the 20 second time point with reading for another 40 seconds. Peak relative fluorescence units (RFU) were subtracted from baseline RFUs using SoftMax Pro (Molecular Devices) and values were imported into GraphPad Prism version 4.03 (GraphPad Software; San Diego, Calif.) for analysis. Ca++-flux studies are very convenient for initial screening of large numbers of compounds for agonist activity.
Compounds are resuspended in DMSO at a stock concentration of 2-15 mM and, for a typical agonist screen, are diluted in assay buffer to a final 2× concentration of 20 μM into drugs plates. Compounds are added in duplicate to cell plates using the FlexStation II as described to identify agonists, defined as having >10% of maximal 5-HT response. […] Generally, screens are performed twice with each determination being made in duplicate. Typical Z′-factor (Zhang et al., 1999) values for agonist screens ranged from 0.61-0.79 (5-HT2AR), 0.42-0.81 (5-HT2BR) and 0.38-0.72 (5-HT2CR); these Z′-factor values are adequate for screening studies in which N=2 determinations are made and the screens replicated for a total of N=4 determinations.
(§3) Compounds identified by primary screens to be agonists are subsequently used in concentration-response experiments to verify the initial observations and obtain agonist potencies. Concentration-response studies are performed in triplicate or quadruplicate at each concentration and repeated three times. Baseline-subtracted RFU values imported into GraphPad Prism are analyzed by non-linear regression to obtain pEC50 values, and normalized to maximal 5-HT response to obtain relative efficacies.

Another assay deals with T3, human 5-HT2C receptor (Homo sapiens, UniProt P28335).
T3 construct: expressed in transfected cells; host or cells: HEK-293
T3 sequence (P28335 33-458): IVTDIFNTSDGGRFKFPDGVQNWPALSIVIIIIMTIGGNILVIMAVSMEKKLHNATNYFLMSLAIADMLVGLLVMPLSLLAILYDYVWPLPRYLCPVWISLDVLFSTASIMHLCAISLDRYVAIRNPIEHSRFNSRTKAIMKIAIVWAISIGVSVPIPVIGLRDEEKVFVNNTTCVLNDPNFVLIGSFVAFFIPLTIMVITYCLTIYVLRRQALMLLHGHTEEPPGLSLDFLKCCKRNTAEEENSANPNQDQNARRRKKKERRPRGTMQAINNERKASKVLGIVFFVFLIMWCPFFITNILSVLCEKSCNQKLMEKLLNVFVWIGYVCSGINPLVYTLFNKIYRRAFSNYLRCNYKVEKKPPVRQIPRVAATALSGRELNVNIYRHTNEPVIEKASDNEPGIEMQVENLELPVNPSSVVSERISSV
The assay can be described thus: Functional activity by Ca++-flux (intracellular calcium mobilization), 5-HT2C. The following applies: for 2A/2C ratio: ratio of EC50 5-HT2A / 5-HT2C; for 2B/2C ratio: ratio of EC50 5-HT2B / 5-HT2C. Here is the method: The functional activity of compounds for the human 5-HT2A, human 5-HT2B, and human 5-HT2C receptors as agonists, partial agonists and antagonists is determined by measurement of Ca++-flux. […] As noted above, other methods for assessing agonist/antagonist function of compounds for 5-HT2 family receptors are known in the art.
as §1, §2
Compounds are resuspended in DMSO at a stock concentration of 2-15 mM and, for a typical agonist screen, are diluted in assay buffer to a final 2× concentration of 20 μM into drugs plates. Compounds are added in duplicate to cell plates using the FlexStation II as described to identify agonists, defined as having >10% of maximal 5-HT response. […] Generally, screens are performed twice with each determination being made in duplicate.
as §3

Setting [1] is: Ca++-flux, HEK-293 cells, NA = not active.
The mark [2] stands for this setting: Ca++-flux, HEK-293 cells, NA = not active, read-out: 5-HT2C human EC50.

Read-outs that look alike come from different tables or passages of the source.

In general, EC50 refers to the concentration that produces a half-maximal response.

T1 sequence (P41595 whole entry): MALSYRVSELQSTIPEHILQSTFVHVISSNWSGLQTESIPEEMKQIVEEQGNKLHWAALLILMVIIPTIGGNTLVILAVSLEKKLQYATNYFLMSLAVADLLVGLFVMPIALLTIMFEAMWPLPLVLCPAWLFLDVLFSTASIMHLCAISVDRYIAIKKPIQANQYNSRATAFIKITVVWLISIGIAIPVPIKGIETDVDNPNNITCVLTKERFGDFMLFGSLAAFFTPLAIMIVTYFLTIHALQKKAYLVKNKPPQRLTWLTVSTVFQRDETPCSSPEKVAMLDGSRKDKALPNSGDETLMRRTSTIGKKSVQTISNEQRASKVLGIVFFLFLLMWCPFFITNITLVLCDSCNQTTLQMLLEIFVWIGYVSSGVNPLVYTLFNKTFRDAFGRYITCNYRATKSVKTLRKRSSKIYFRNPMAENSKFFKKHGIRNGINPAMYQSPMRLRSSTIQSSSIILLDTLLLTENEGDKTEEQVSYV

With “trans-(±)-[2-(3-Fluoro-phenyl)-cyclopropyl]-methylamine Hydrochloride [TKU-II-99]”, the values for the EC50 at human 5-HT2B receptor (setting [1]), on human 5-HT2A receptor (setting [1]) and at human 5-HT2C receptor (setting [2]) were 4680 nM, 0.0634 µM and 63.2 nM, respectively. On human 5-HT2C receptor, the 2A/2C ratio is listed as 1.0. Moreover, the 2B/2C ratio on human 5-HT2C receptor came out at 74.
The corresponding values for “trans-(±)-[2-(4′-Fluoro-biphenyl-4-yl)-cyclopropyl]-methylamine Hydrochloride [TKU-II-57]” are 624000 nM, 1030 µM, 10200 nM, 101.1 and 61.
For the compound “trans-(±)-[2-(4-Furan-2-yl-phenyl)-cyclopropyl]-methylamine Hydrochloride [TKU-II-81]”, the “activity at 5-HT2B receptor” value at human 5-HT2B receptor is listed as “no activity”. Further, the EC50 on human 5-HT2A receptor (setting [1]) amounted to 281 µM; on human 5-HT2C receptor (setting [2]) it was 82 nM. Besides, on human 5-HT2C receptor (5-HT2C versus 5-HT2A), the “selectivity over the 5-HT2A receptor” value was “good selectivity”. Further, on human 5-HT2C receptor, the 2A/2C ratio is reported as 3431.
As to “trans-(±)-[2-(4′-Trifluoromethyl-biphenyl-2-yl)-cyclopropyl]-methylamine Hydrochloride [TKU-II-120]”, on human 5-HT2B receptor (setting [1]), the “5-HT2B human EC50” value is recorded as “Not”. For the same compound, the “5-HT2A human EC50” value on human 5-HT2A receptor (setting [1]) is given as “Not”. For the same compound, the EC50 on human 5-HT2C receptor (setting [2]) stood at 10.1 nM.
Take `CN[C@@H]1C[C@H]1c1ccccc1` (racemic) [TKU-II-38, trans-(±)-Methyl-(2-phenyl-cyclopropyl)-amine]: the figures for the 50% effective concentration (EC50) at human 5-HT2A receptor (setting [1]) and at human 5-HT2C receptor (setting [2]) were 165 µM and 2500 nM, respectively. In addition, the 2A/2C ratio at human 5-HT2C receptor stood at 65.8.
The matching figures for `CC(C)N[C@@H]1C[C@H]1c1ccccc1` (racemic) [TKU-II-33, trans-(±)-Isopropyl-(2-phenyl-cyclopropyl)-amine]: 1470 µM, 8840 nM and 166.
The corresponding values for “trans-(±)-[2-(4′-Chloro-biphenyl-3-yl)-cyclopropyl]-methylamine Hydrochloride [TKU-II-116]” are 4 µM, 124 nM and 32.3.
Take “trans-(−)-(2-Phenyl-cyclopropyl)-methylamine Hydrochloride [TKU-II-115]”: the EC50 on human 5-HT2B receptor (setting [1]) was found to be 1540 nM; on human 5-HT2A receptor (setting [1]), 1.69 µM; on human 5-HT2C receptor (setting [2]) it was 280 nM. For the same compound, the 2A/2C ratio at human 5-HT2C receptor turned out to be 6.02. For the same compound, the 2B/2C ratio at human 5-HT2C receptor stood at 5.49.
Consider “cis-(±)-(2-Phenyl-cyclopropyl)-methylamine Hydrochloride [TKU-II-19]”, for which the “activity at 5-HT2B receptor” value at human 5-HT2B receptor is on record as “poorly active”. In addition, the EC50 at human 5-HT2B receptor (setting [1]) stood at 308 nM; on human 5-HT2A receptor (setting [1]) it was 0.705 µM; on human 5-HT2C receptor (setting [2]) it was 152 nM. Moreover, the “activity at 5-HT2A receptor” value at human 5-HT2A receptor is “poorly active”. Moreover, the “activity at 5-HT2C receptor” value on human 5-HT2C receptor is “poorly active”. For the same compound, at human 5-HT2C receptor, the 2A/2C ratio was 4.64. For the same compound, the 2B/2C ratio on human 5-HT2C receptor amounted to 2.03.
`CNC[C@@H]1C[C@H]1c1ccccc1` (racemic) [TKU-II-39, trans-(±)-Methyl-(2-phenyl-cyclopropylmethyl)-amine]: the concentration for a half-maximal effect (EC50) at human 5-HT2B receptor (setting [1]) was 980 nM; at human 5-HT2A receptor (setting [1]), 3.71 µM; at human 5-HT2C receptor (setting [2]), 718 nM. On human 5-HT2C receptor, the 2A/2C ratio was 5.18. Further, at human 5-HT2C receptor, the 2B/2C ratio was 1.36.
Consider `N[C@@H]1C[C@H]1c1ccccc1` (relative stereo) [Tranylcypromine, trans-2-phenylcyclopropylamine, reference compound], for which the EC50 at human 5-HT2C receptor was 271 nM.
With “trans-(±)-[2-(4′-Trifluoromethyl-biphenyl-3-yl)-cyclopropyl]-methylamine Hydrochloride [TKU-II-117]”, the EC50 at human 5-HT2A receptor (setting [1]) was determined as 277 µM; on human 5-HT2C receptor (setting [2]), 465 nM. Also, the 2A/2C ratio at human 5-HT2C receptor was 596.
In the case of “trans-(±)-[2-(4-Fluoro-phenyl)-cyclopropyl]-methylamine Hydrochloride [TKU-II-90]”, at human 5-HT2A receptor (setting [1]), the EC50 was 0.0071 µM.
